The results in this text go back to PMC9669269 (Journal of Computational Chemistry, 2022).

Structures are written as SMILES. Some results are limits rather than exact numbers.

Test in all cases: HTRF displacement of biotinylated H4Ac4 peptide
What all share (format): binding

One experiment addresses hBrd4 BD2 (Homo sapiens, UniProt O60885).
A further experiment concerns the target hBrd4 BD1 (Homo sapiens, UniProt O60885).
A further experiment deals with T1, CaBD1 (CaBdf1 BD1) (Candida albicans, UniProt Q5A4W8).
T1 sequence (Q5A4W8 193-327): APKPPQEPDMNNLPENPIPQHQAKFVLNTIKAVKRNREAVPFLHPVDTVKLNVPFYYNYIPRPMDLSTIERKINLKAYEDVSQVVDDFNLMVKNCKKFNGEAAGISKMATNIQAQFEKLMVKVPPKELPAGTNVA

A further experiment has as its target T2, CaBD2 (CaBdf1 BD2) (Candida albicans, UniProt Q5A4W8).
T2 sequence (Q5A4W8 386-491): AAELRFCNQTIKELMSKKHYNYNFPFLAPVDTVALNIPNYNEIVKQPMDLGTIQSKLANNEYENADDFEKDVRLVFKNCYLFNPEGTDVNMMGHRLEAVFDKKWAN

By IC50 is commonly meant the midpoint of a concentration-inhibition curve. As to `Cc1ccc(Nc2c(-c3ccc(O)c(F)c3)nc3c(C)cccn23)cc1` [1a, 2‐Fluoro‐4‐(8‐methyl‐3‐(p‐tolylamino)imidazo[1,2‐a]pyridin‐2‐yl)phenol], the IC50 on hBrd4 BD2 is 8.7 ± 1.8 µM; on hBrd4 BD1 it was 14.8 ± 6.9 µM; at CaBD1 (CaBdf1 BD1), above 20 µM; at CaBD2 (CaBdf1 BD2) it was 6.3 ± 2.78 µM.

Regarding `Cc1ccc(Nc2c(-c3ccc(O)cc3F)nc3c(C)cccn23)cc1` [1b, 3‐Fluoro‐4‐(8‐methyl‐3‐(p‐tolylamino)imidazo[1,2‐a]pyridin‐2‐yl)phenol], the IC50 on hBrd4 BD2 was above 20 µM; at hBrd4 BD1 it was above 20 µM; at CaBD1 (CaBdf1 BD1) it was above 20 µM; at CaBD2 (CaBdf1 BD2), 5.22 ± 2.12 µM.

As for `Cc1ccc(Nc2c(-c3ccc(O)cc3)nc3c(C)cccn23)cc1O` [1c, 5‐((2‐(4‐Hydroxyphenyl)‐8‐methylimidazo[1,2‐a]pyridin‐3‐yl)amino)‐2‐methylphenol], the IC50 at hBrd4 BD2 was above 20 µM; at hBrd4 BD1, above 20 µM; at CaBD1 (CaBdf1 BD1), above 20 µM; at CaBD2 (CaBdf1 BD2), 0.78 ± 0.15 µM.

`Cc1ccc(Nc2c(-c3ccc(O)cc3)nc3c(C)cccn23)c(O)c1` [1d, 2‐((2‐(4‐Hydroxyphenyl)‐8‐methylimidazo[1,2‐a]pyridin‐3‐yl)amino)‐5‐methylphenol]: the IC50 on hBrd4 BD2 was above 20 µM; on hBrd4 BD1 it was above 20 µM; on CaBD1 (CaBdf1 BD1), above 20 µM; on CaBD2 (CaBdf1 BD2) it was 9.74 ± 0.19 µM.

As for `Cc1ccc(Nc2c(-c3ccc(O)cc3)nc3c(Cl)cccn23)cc1` [1e, 4‐(8‐Chloro‐3‐(p‐tolylamino)imidazo[1,2‐a]pyridin‐2‐yl)phenol], the concentration for half-maximal inhibition (IC50) on hBrd4 BD2 is 16 ± 1.2 µM; at hBrd4 BD1, above 20 µM; at CaBD1 (CaBdf1 BD1) it was above 20 µM; on CaBD2 (CaBdf1 BD2) it was 1.5 ± 0.42 µM.

For `Cc1ccc(Nc2c(-c3ccc(O)cc3)nc3c(Br)cccn23)cc1` [1f, 4‐(8‐Bromo‐3‐(p‐tolylamino)imidazo[1,2‐a]pyridin‐2‐yl)phenol], the IC50 at hBrd4 BD2 was above 20 µM; at hBrd4 BD1, above 20 µM; at CaBD1 (CaBdf1 BD1), above 20 µM; on CaBD2 (CaBdf1 BD2), 0.75 ± 0.25 µM.

Consider `Cc1ccc(Nc2c(-c3ccc(O)cc3)nc3c(I)cccn23)cc1` [1g, 4‐(8‐Iodo‐3‐(p‐tolylamino)imidazo[1,2‐a]pyridin‐2‐yl)phenol], for which the IC50 on hBrd4 BD2 was above 20 µM; on hBrd4 BD1 it was above 20 µM; on CaBD1 (CaBdf1 BD1), above 20 µM; at CaBD2 (CaBdf1 BD2), 1.01 ± 0.19 µM.

As for `Cc1cccn2c(Nc3ccc(N)cc3)c(-c3ccc(O)cc3)nc12` [1h, 4‐(3‐([4‐Aminophenyl]amino)‐8‐methylimidazo[1,2‐a]pyridin‐2‐yl)phenol], the half-maximal inhibitory concentration (IC50) at hBrd4 BD2 is 2.24 ± 0.65 µM; on hBrd4 BD1 it was above 20 µM; at CaBD1 (CaBdf1 BD1), above 20 µM; at CaBD2 (CaBdf1 BD2), 0.37 ± 0.09 µM.

For the molecule `Cc1cccn2c(Nc3ccc(Br)cc3)c(-c3ccc(O)cc3)nc12` [1i, 4‐(3‐([4‐Bromophenyl]amino)‐8‐methylimidazo[1,2‐a]pyridin‐2‐yl)phenol], the IC50 is 12.8 ± 3.2 µM at hBrd4 BD2, above 20 µM on hBrd4 BD1, above 20 µM on CaBD1 (CaBdf1 BD1) and 4.35 ± 0.63 µM on CaBD2 (CaBdf1 BD2).

Turning to `Cc1cccn2c(Nc3ccc([N+](=O)[O-])cc3)c(-c3ccc(O)cc3)nc12` [1j, 4‐(8‐Methyl‐3‐([4‐nitrophenyl]amino)imidazo[1,2‐a]pyridin‐2‐yl)phenol], the IC50 at hBrd4 BD2 is above 20 µM; on hBrd4 BD1 it was above 20 µM; on CaBD1 (CaBdf1 BD1) it was above 20 µM; at CaBD2 (CaBdf1 BD2), 4.39 ± 1.04 µM.

Regarding `Cc1ccc(Nc2c(-c3ccc(O)cc3)nc3c(C)cccn23)cc1` [compound 1, imidazopyridine (1)], the IC50 on hBrd4 BD2 was above 20 µM; on hBrd4 BD1, above 20 µM; at CaBD1 (CaBdf1 BD1) it was above 20 µM; at CaBD2 (CaBdf1 BD2), 3.9 ± 0.35 µM.
